Source: patent publication EP0383591B1, “Use of 5-methyl-1-phenyl-2-(1H)-pyridone in the prevention of fibrotic lesions” (Yamauchi, Shitotomo, priority 1989, dated 1990)
Where “and” joins values, the source holds several entries; their conditions need not be identical. Equal entries are not always repeated. Marks after values point to notes of the source that are not given here.

Columns and labels:
[1] = system: Asbestos-Induced Pulmonary Interstitial Fibrosis; test: Effect of oral 5MP2P upon asbestos-induced pulmonary interstitial fibrosis in hamsters; assay type: in vivo; set-up: key to Pulmonary Fibrosis Scores Light Microscope (individual animal) / Pulmonary Fibrosis Scores Electron Microscope (individual animal): 0 = normal tissue; 1 = minimal; 2 = moderate; 3 = severe
Excerpt: In hamsters, pulmonary fibrosis induced with crysotile asbestos was removed following oral 5MP2P (cf. Table 4).
The novel role of 5MP2P in the therapeutic repair of fibrotic lung tissue featuring removal of fibrotic lesions, and concomitant regeneration of normal lung tissue has been observed in experimental asbestosis by histopathological examination of lung tissue specimens under the light microscope, and electron microscopy (Table 4).
This was subsequently confirmed by ashing of lung specimens in a laboratory oven, and then determining the asbestos content.

[2] = system: Pulmonary Interstitial Hyperplasia (Fibrosis); test: Effect of oral 5MP2P upon pulmonary interstitial hyperplasia in dogs; assay type: in vivo, Beagle dogs; settings: for Hyperplasia Scores 0 (number of dogs): 0 = normal tissue; for Hyperplasia Scores 1 (number of dogs): 1 = minimal; for Hyperplasia Scores 2 (number of dogs): 2 = moderate; for Hyperplasia Scores 3 (number of dogs): 3 = severe; for Incidence of Normal Lung / Average Scores (hyperplasia): dogs; for Incidence of Normal Lung: control 0/9; for Average Scores (hyperplasia): score 0-3, control 2.11+0.31
[3] = system: Pulmonary Interstitial Hyperplasia (Fibrosis); test: as above; assay type: in vivo, Beagle dogs
Method: The mean score for Group I (Control) was 2.11 + 0.31, and for Group IV, which received 5MP2P, 150 mg/kg per day orally in capsules, was 0.22 + 0.15.

[4] = system: fibrosis (interstitial hyperplasia); test: Histopathological examination of the lungs of rats for fibrosis after 5MP2P in the diet; assay type: in vivo
Method: The results of a histopathological examination of the lungs of rats for fibrosis (interstitial hyperplasia) after receiving 300 mg/kg body of 5MP2P in the diet for three months are summarized in Table 2. The individual microscopic readings of the lung are also shown in Table 2, a score schedule of 0, 1, 2 and 3 reflects the degree of fibrosis.
The data in […] reveal a statistically significant reduction in amount of fibrosis in rats receiving 5MP2P as compared to placebo control rats (Group 1). The mean score for the controls (Group 1) was 1.63 + 0.23, and for Group IV (5MP2P, 300 mg/kg body weight daily) was 0.95 + 0.23.
Student's T value was 2.43, with P less than 0.02 (highly significant statistically).

Acute toxicity (LD50) = settings: in vivo
Excerpt: The acute toxicity of the ingredient in the medical composition of the present invention which exerts the anti-fibrotic activity is as shown in the table below.

[5] = hamsters, Group III: asbestos by inhalation for 5 days, 5MP2P 500 MG/KG/day orally in the diet for two months, beginning two months after exposure
[6] = 300 mg/kg in the diet for three months, 19 animals

Compound: Cc1ccc(=O)n(-c2ccccc2)c1 [5MP2P, 5-Methyl-1-phenyl-2-(1H)-pyridone]
- recurrence of asbestos-induced fibrosis ([1]; after 5MP2P had been discontinued for two months): did not recur
- lung cell-imbedded asbestos fibers ([1]; electron microscope, confirmed by ashing of lung specimens and determining the asbestos content): had been removed
- Pulmonary Fibrosis Scores Lung Density, Average ([1]; hamsters, Group III, 500 MG/KG/day in the diet for two months, asbestos without 5MP2P 2.53+0.23, no asbestos 1.00+0.05): 1.17+0.10**
- Pulmonary Fibrosis Scores Electron Microscope, Average ([1]; hamsters, Group III, 500 MG/KG/day in the diet for two months, asbestos without 5MP2P 2.75+0.25, no asbestos 0.25+0.25): 0.25+0.25**
- Pulmonary Fibrosis Scores Light Microscope, Average ([1]; hamsters, Group III, 500 MG/KG/day in the diet for two months, asbestos without 5MP2P 2.75+0.25, no asbestos 0.50+0.25): 1.00+0.41**
- Pulmonary Fibrosis Scores Electron Microscope (individual animal) [1, 5]: 0 (3×) and 1
- Pulmonary Fibrosis Scores Light Microscope (individual animal) [1, 5]: 0 and 2 and 1 (2×)
- Pulmonary Fibrosis Scores Lung Density (individual animal) [1, 5]: 0.98 and 1.04 and 1.26 and 1.41
- pulmonary fibrosis induced with crysotile asbestos ([1]; hamsters, oral 5MP2P): removed
- Hyperplasia Scores 0 (number of dogs) ([2]; 25 MG/KG/day, 6 dogs): 1
- Hyperplasia Scores 1 (number of dogs) ([2]; 25 MG/KG/day, 6 dogs): 1
- Hyperplasia Scores 2 (number of dogs) ([2]; 25 MG/KG/day, 6 dogs): 4
- Hyperplasia Scores 3 (number of dogs) ([2]; 25 MG/KG/day, 6 dogs): 0
- Hyperplasia Scores 0 (number of dogs) ([2]; 75 MG/KG/day, 8 dogs): 2
- Hyperplasia Scores 1 (number of dogs) ([2]; 75 MG/KG/day, 8 dogs): 2
- Hyperplasia Scores 2 (number of dogs) ([2]; 75 MG/KG/day, 8 dogs): 3
- Hyperplasia Scores 3 (number of dogs) ([2]; 75 MG/KG/day, 8 dogs): 1
- Hyperplasia Scores 2 (number of dogs) ([2]; 150 MG/KG/day, 9 dogs): 0
- Hyperplasia Scores 3 (number of dogs) ([2]; 150 MG/KG/day, 9 dogs): 0
- Incidence of Normal Lung ([2]; 25 MG/KG/day oral): 1/6
- Incidence of Normal Lung ([2]; 75 MG/KG/day oral): 2/8
- Average Scores (hyperplasia) ([2]; Group II, 25 MG/KG/day oral): 1.50+0.34
- Average Scores (hyperplasia) ([2]; Group III, 75 MG/KG/day oral): 1.38+0.38
- Hyperplasia Scores 0 (number of dogs) ([3]; 150 MG/KG/day, 9 dogs, 0 = normal tissue): 7
- Hyperplasia Scores 1 (number of dogs) ([3]; 150 MG/KG/day, 9 dogs, 1 = minimal): 2
- Incidence of Normal Lung ([3]; dogs, 150 MG/KG/day oral, control 0/9): 7/9
- Lung Connective Tissue Score 0, Total (number of animals) [4, 6]: 5
- Lung Connective Tissue Score 1, Total (number of animals) [4, 6]: 11
- Lung Connective Tissue Score 2, Total (number of animals) [4, 6]: 2
- Lung Connective Tissue Score 3, Total (number of animals) [4, 6]: 1
- Lung Connective Tissue Score, Mean ([4]; Group IV, 300 mg/kg body weight daily in the diet for three months, score schedule 0-3, control mean 1.63, P<0.02, 300 mg/kg): 0.95 ± 0.23 and 0.95
- LD50 (Acute toxicity (LD50); ip, Guinea pig): 460 ± 28 mg/kg
- LD50 (Acute toxicity (LD50); ip, Mouse): 600 ± 43 mg/kg
- LD50 (Acute toxicity (LD50); ip, Rat): 430 ± 29 mg/kg
- LD50 (Acute toxicity (LD50); iv, Cat): 40 mg/kg
- LD50 (Acute toxicity (LD50); iv, Dog): 200 mg/kg
- LD50 (Acute toxicity (LD50); iv, Monkey): 100 mg/kg
- LD50 (Acute toxicity (LD50); iv, Mouse): 285 ± 5 mg/kg
- LD50 (Acute toxicity (LD50); iv, Rabbit): 280 ± 32 mg/kg
- LD50 (Acute toxicity (LD50); po, Cat): 500 mg/kg
- LD50 (Acute toxicity (LD50); po, Dog): 300 mg/kg
- LD50 (Acute toxicity (LD50); po, Guinea pig): 810 ± 25 mg/kg
- LD50 (Acute toxicity (LD50); po, Mouse): 998 mg/kg
- LD50 (Acute toxicity (LD50); po, Rat female): 2300 mg/kg
- LD50 (Acute toxicity (LD50); po, Rat male): 1300 mg/kg
